We go through 5 compounds from US20140371280A1, “Method of treating diabetic peripheral neuropathy through amendment of pre-neuronal diabetic coagulative micro-angiopathy and neuronal deficiency of mitochondrial ATP production, and through induction of neuronal regeneration” (priority 2013, published 2014).

The test system of one experiment is insulin sensitization. The settings on record: yes/no; cited from earlier work.
In a further experiment the test system is arterioles. The settings on record: yes/no; cited from earlier work.
A further experiment deals with platelet aggregation. The settings on record: yes/no; cited from earlier work.
A further experiment relates to neoangiogenesis. Particulars: yes/no; cited from earlier work.
Experiment [1] concerns diabetic peripheral neuropathy. Briefly: Clinical case: diabetic person with DPN of stocking-glove pattern and maceration in the big toe. Type of experiment: in vivo, human patient. An excerpt:
An elderly patient of DPN with advanced DM of hyperglycemia, hypoinsulinemia, and HgbA1C elevated to 7.5%, presented themself with a typical stocking-glove pattern of DPN accompanied by maceration in the left big toe. A bitherapy of SAG+ALC halted their DPN.
The present DPN-relieving invention includes mainly four parts: (1) rescue with SAG-ALC of the tormenting DPN distress of pain, cold sensation, and maceration in the stocking-glove pattern; (2) expansion of the SAG-ALC regimen to include ALA; (3) extended use of the SAG+ALC+ALA principle for prevention of recurrence and maintenance; and (4) an extended use of the principle for induction of neuronal regeneration with SAG+ALC+ALA. • (1) Prompt halt of DPN symptoms with the application of SAG in order to amend the pre-neuronal coagulative microangiopathy and with ALC to amend the neuronal mitochondrial fatty acid transport across the carnithine window so as to help generating ATP through β-oxidation of fatty acids: the SAG+ALC principle. • A person with a 10-year history of DM developed signs and symptoms of DPN of the stocking-glove pattern and maceration in the big toe in the depth. […] The dosage could be 100 to 200 mg three times a day unless contraindicated by hemorrhagic diathesis. They were relieved of the distress but limitedly for 2-3 hours of post-dose. The patient was greatly depressed to learn that neuronal loss that could have already taken place might not be recovered with the SAG (Srinivasan et al. 2000)). • ALC was added at 1500 mg per day. The dosage range could be 500 to 4500 mg per day in the hope of eventual induction of neuronal regeneration (Tagliatela et al. 1991; Ishii et al. 2000). […] Thus, the SAG and ALC appeared to work synergistically. Within 2 months of this combination treatment, the soft swelling due to maceration in the depth of the big toe resolved (FIG. 1e). This ALC-SAG combination therapy may be continued as long as one's DPN status persists. […]

Turning to `O=C1CCc2cc(OCCCCc3nnnn3C3CCCCC3)ccc2N1` [Pletaal, cilostazol], in the experiment on insulin sensitization, the Insulin-sensitization entry is given as “No”. Besides, in the experiment on arterioles, the Arteriolar dilation entry was “Yes”. Moreover, the “Anti-platelet Aggregation” value in the experiment on platelet aggregation is “Yes”. Further, in the experiment on neoangiogenesis, the Neo-angiogenesis entry was “No”.
On to `CC1CNc2c(cccc2S(=O)(=O)N[C@@H](CCCNC(=N)N)C(=O)N2CC[C@@H](C)C[C@@H]2C(=O)O)C1` (some centres unmarked) [Novastan, argatroban hydrate], for which the Insulin-sensitization entry in the experiment on insulin sensitization is “No”. In addition, the Arteriolar dilation result with arterioles is reported as “Yes”. In addition, the “Anti-platelet Aggregation” value in the experiment with platelet aggregation is given as “Yes”. The Neo-angiogenesis result with neoangiogenesis is reported as “No”.
As for `COc1cccc(CCc2ccccc2OCC(CN(C)C)OC(=O)CCC(=O)O)c1` (centres unmarked) [SAG, sarpogrelate], in the experiment on insulin sensitization, the Insulin-sensitization result is recorded as “Yes”. In addition, in the experiment with arterioles, the Arteriolar dilation entry is “Yes”. The “Anti-platelet Aggregation” value in the experiment on platelet aggregation is given as “Yes”. For the same compound, the “Duration of relief of distress post-dose” value in experiment [1] (SAG 600 mg per day, monotherapy) lay within 2 to 3 h. Also, in experiment [1] (each 200 mg dose of SAG, monotherapy), the “Duration of halt of DPN's pain and cold intolerance per dose” value lay in the range of 3 to 4 h. The “Effect on DPN symptoms (pain, cold sensation, numbness)” value in experiment [1] (patient, SAG 600 mg, ALC 1500 mg, ALA 600 mg per day, EPR 100 mg three times a day, as combined) was “appreciably but passingly alleviated”. Also, in the experiment on neoangiogenesis, the Neo-angiogenesis result is on record as “Yes”.
As to `CC/C=C\C/C=C\C/C=C\C/C=C\C/C=C\CCCC(=O)OCC` [Epadel, ethyl icosapentate], in the experiment with insulin sensitization, the Insulin-sensitization result is given as “No”. Also, the Arteriolar dilation entry in the experiment on arterioles is recorded as “Yes”. Also, the “Anti-platelet Aggregation” value in the experiment with platelet aggregation is “Yes”. The Neo-angiogenesis result with neoangiogenesis is recorded as “No”.
Take Heparin: the Insulin-sensitization entry in the experiment on insulin sensitization is “No”. The Arteriolar dilation entry with arterioles is on record as “No”. For the same compound, in the experiment on platelet aggregation, the “Anti-platelet Aggregation” value is “Yes”. The Neo-angiogenesis result in the experiment with neoangiogenesis is listed as “No”.
